Source: PMC9311059, “P‐Glycoprotein and Breast Cancer Resistance Protein Transporter Inhibition by Cyclosporine and Quinidine on the Pharmacokinetics of Oral Rimegepant in Healthy Subjects” (Clinical Pharmacology in Drug Development, 2022)
Where “and” joins values, the source holds several entries; their conditions need not be identical. Equal entries are not always repeated. Where two headings read alike, the source gives them in different places.

Assays:
[1] = parameters: method as in PMID 23965396; settings: single and 2‐week multiple daily oral doses up to 600 mg; cited from earlier work
[2] = test system: organic anion transporting polypeptide 1B3; parameters: method as in ref 7 = [7]; PMID 32058712; doi:10.1021/acs.jmedchem.9b01810; 7 Dubowchik GM , Conway CM , Xin AW . Blocking the CGRP pathway for acute and preventive treatment of migraine: the evolution of success . J Med Chem . 2020; 63 ( 13 ): 6600 ‐ 6623 . 32058712 10.1021; settings: in vitro; cited from earlier work
[3] = Part 2: pharmacokinetics of rimegepant 75 mg ODT alone or coadministered with quinidine 600 mg, 2-way crossover; format: in vivo, human; settings: for AUC / Cmax: po, 75 mg; for Tmax: read-out: tmax, median (range)
Description: This phase 1, open‐label, randomized, single‐dose, 2‐way crossover, 2‐part, drug‐drug interaction study was conducted at a single center (Syneos Health, Québec, Canada). Subjects were screened within 28 days preceding administration of study medication. In part 1, fasted subjects were randomly assigned to a single dose of rimegepant 75 mg ODT or a single dose of rimegepant 75 mg ODT coadministered with cyclosporine 200 mg (2 × 100‐mg capsules). […] Following the completion of part 1, an interim PK analysis and review of data were performed. […] In part 2, fasted subjects were randomly assigned to a single dose of rimegepant 75 mg ODT or a single dose of rimegepant 75 mg ODT coadministered with quinidine 600 mg (2 × 300‐mg tablets).
In part 1, subjects received 1 of the following treatments under fasting conditions: 1 oral dose of rimegepant 75 mg ODT (Catalent Pharma Solutions, Swindon, UK) or 1 oral dose of rimegepant 75 mg ODT coadministered with cyclosporine 200 mg (Novartis Pharmaceuticals Canada Inc., Dorval, Quebec, Canada). In part 2, subjects received 1 of the following treatments under fasting conditions: 1 oral dose of rimegepant 75 mg ODT alone or 1 oral dose of rimegepant 75 mg ODT coadministered with quinidine 600 mg (Sandoz Inc., West Princeton, New Jersey). In parts 1 and 2, the interval between treatments could not exceed 2 minutes.
For each treatment, subjects were confined from the morning of day −1 until after the 24‐hour postdose blood draw on day 2. Subjects returned for all subsequent blood draws. No food was allowed from at least 10 hours before dosing until at least 4 hours after dosing. Meals were standardized and similar in composition between periods. Except for water given with cyclosporine and quinidine, no fluids were allowed from 1 hour before dosing until 1 hour after dosing. Water was provided ad libitum at all other times. […] When appropriate, subjects were accompanied by a staff member while walking.
In each period, 20 blood samples for PK assessment were collected at the following time points: before dosing; 5, 10, 20, 30, 40, and 50 minutes after dosing; and 1, 1.5, 2, 2.5, 3, 4, 5, 6, 8, 12, 24 (day 2), 48 (day 3), and 72 (day 4) hours after dosing. […] Plasma samples were assayed for rimegepant using ultra‐performance liquid chromatography with tandem mass spectrometry detection (LC‐MS/MS). The quantifiable range was 10 to 5000 ng/mL. Plasma samples containing human ethylenediaminetetraacetic acid (EDTA) K2 plasma as an anticoagulant were processed using automated protein precipitation before LC‐MS/MS analysis. The internal standard was rimegepant‐^13C2d4. The validation was performed using an API 5000 LC/MS/MS system with Analyst software, version 1.6.3 (SCIEX, Framingham, Massachusetts). The pump flow was isocratic, with a flow rate set at 0.600 mL/min. The column was an Acquity UPLC BEH C18, 50×2.1 mm, 1.7 μm (Waters Corporation, Framingham, Massachusetts), which was maintained at a temperature of 60°C and contained Milli‐Q type water/acetonitrile with ammonium acetate and acetic acid. […] Incurred sample reanalysis was carried out on ≈10% of randomly selected samples.
The effects of cyclosporine (part 1) or quinidine (part 2) on the single‐dose PK of rimegepant were evaluated using general linear model procedures in SAS (SAS Institute, Cary, North Carolina). In these evaluations, analysis of variance (ANOVA) model was performed on untransformed tmax, terminal elimination rate constant, and t1/2el and on log‐transformed AUC0‐t, AUC0‐inf, and Cmax at the alpha level of .05. The model included treatment, sequence, and period as fixed effects, and subject nested within sequence as a random effect. Intra‐ and intersubject coefficient of variation were estimated.

[4] = test system: CYP2C9; parameters: method as in ref 7 = [7]; PMID 32058712; doi:10.1021/acs.jmedchem.9b01810; 7 Dubowchik GM , Conway CM , Xin AW . Blocking the CGRP pathway for acute and preventive treatment of migraine: the evolution of success . J Med Chem . 2020; 63 ( 13 ): 6600 ‐ 6623 . 32058712 10.1021; settings: implicated in vitro; CYP2C9 allelic variation without significant influence; cited from earlier work
[5] = parameters: method as in unpublished; settings: rimegepant 75 mg with fluconazole 400 mg once daily for 8 consecutive days; ref unpublished; cited from earlier work
[6] = test system: organic anion transporting polypeptide 1B1; parameters: method as in ref 7 = [7]; PMID 32058712; doi:10.1021/acs.jmedchem.9b01810; 7 Dubowchik GM , Conway CM , Xin AW . Blocking the CGRP pathway for acute and preventive treatment of migraine: the evolution of success . J Med Chem . 2020; 63 ( 13 ): 6600 ‐ 6623 . 32058712 10.1021; settings: in vitro; cited from earlier work
[7] = test system: BCRP; parameters: method as in ref 7 = [7]; PMID 32058712; doi:10.1021/acs.jmedchem.9b01810; 7 Dubowchik GM , Conway CM , Xin AW . Blocking the CGRP pathway for acute and preventive treatment of migraine: the evolution of success . J Med Chem . 2020; 63 ( 13 ): 6600 ‐ 6623 . 32058712 10.1021; settings: in vitro; cited from earlier work
[8] = by quinidine 600 mg, single dose rimegepant 75 mg ODT, vs rimegepant alone
[9] = coadministration with quinidine 600 mg, rimegepant 75 mg

## N[C@@H]1c2cccnc2[C@H](OC(=O)N2CCC(n3c(=O)[nH]c4ncccc43)CC2)CC[C@H]1c1cccc(F)c1F [Rimegepant]
[1]
  tolerability: well tolerated
[2]
  substrate of organic anion transporting polypeptide 1B3: not a substrate
[3]; [8]
  increase in rimegepant AUC0‐inf: 54.8% and 55%
  increase in rimegepant Cmax: 66.9% and 67%
[3]; [9]
  rimegepant AUC0‐inf geometric mean ratio (90% CI) versus rimegepant alone: 1.55 (1.40‐1.72)
  rimegepant Cmax geometric mean ratio (90% CI) versus rimegepant alone: 1.67 (1.46‐1.91)
[3]; human, plasma, part 2, rimegepant 75 mg ODT alone, single oral dose, fasted, plasma, N = 12, read-out: AUC0‐inf, geometric least squares mean
  AUC: 4410 ng·h/mL
[3]; human, plasma, part 2, rimegepant 75 mg ODT alone, single oral dose, fasted, plasma, N = 12, read-out: AUC0‐t, geometric least squares mean
  AUC: 4400 ng·h/mL
[3]; human, plasma, part 2, rimegepant 75 mg ODT alone, single oral dose, fasted, plasma, N = 12, read-out: Cmax, geometric least squares mean
  Cmax: 797 ng/mL
[3]; human, plasma, part 2, rimegepant ODT 75 mg alone, single oral dose, N 12, read-out: AUC0‐inf, arithmetic mean (percent coefficient of variation)
  AUC: 4540 ng·h/mL
[3]; human, plasma, part 2, rimegepant ODT 75 mg alone, single oral dose, N 12, read-out: AUC0‐t, arithmetic mean (percent coefficient of variation)
  AUC: 4520 ng·h/mL
[3]; human, plasma, part 2, rimegepant ODT 75 mg alone, single oral dose, N 12, read-out: Cmax, arithmetic mean (percent coefficient of variation)
  Cmax: 829 ng/mL
[3]; human, plasma, part 2, rimegepant ODT 75 mg alone, single oral dose, N 12
  Tmax: 1.5 h
[3]; human, plasma, part 2, rimegepant ODT 75 mg alone, single oral dose, N 12, read-out: t½el, arithmetic mean (percent coefficient of variation) (converted)
  half-life: 8.56 h
[3]; human, plasma, part 2, rimegepant ODT 75 mg coadministered with quinidine 600 mg, single oral dose, N 12
  Tmax: 2.8 h
[3]; part 2, rimegepant ODT 75 mg alone, single oral dose, N 12
  CL/F, arithmetic mean (percent coefficient of variation): 17.39 (24.68) L/h
[3]; part 2, rimegepant with quinidine vs rimegepant alone
  difference in geometric mean t1/2el between treatments: ≤ 20%
[4]
  role of CYP2C9 in metabolism: not to be a significant mediator of metabolism in vivo
[5]
  change in rimegepant Cmax: no change
  increase in rimegepant AUC: 80%
[6]
  substrate of organic anion transporting polypeptide 1B1: not a substrate
[7]
  substrate of BCRP transporter: substrate
